The values below come from patent US8795742B2 (priority 2006, dated 2014).

This test concerns H5 serum type avian influenza virus. More on the design: species or system yellow chicken. The following applies: in vivo.

In turn, `CC(N)C12CC3CC(CC(C3)C1)C2` (stereo not drawn) [Group C, Rimantadine] displayed an Effective rate of 42.5%, a Number of death of 23 and a Rate of death of 57.5%.
